Laboratory results from patent publication US4736045A, “Process for fluorinating ethers” (priority 1983, dated 1988).

Assay: Critical temperature and normal boiling point of heat pump working fluids
Assay type: physicochemical
Conditions: working fluid in a heat pump (TC = 150° C., TE = 100° C.)

Row | SMILES | critical temperature [°C] | normal boiling point [°C]
1 | COCC(F)(F)C(F)C(F)(F)F (stereo not shown) [1.1.1.2.3.3. hexafluoro butyl methyl ether] | 236 | 87
2 | FC(F)(F)C(F)(F)C(F)(F)C1(F)OC(F)(F)C(F)(F)C1(F)F (stereo not shown) [perfluoro-2-propyloxolane] | 206 | 79
